Source: PMC3914206

Legend:
Assay type in all cases: binding
Parameters in all cases: KINOMEscan: ABL1(F317L)-phosphorylated / KINOMEscan: ABL1(H396P)-nonphosphorylated / KINOMEscan: ABL1(H396P)-phosphorylated / KINOMEscan: ABL1(M351T)-phosphorylated / KINOMEscan: ABL1(T315I)-phosphorylated / KINOMEscan: ABL1-nonphosphorylated / KINOMEscan: ABL1-phosphorylated / KINOMEscan: ACVR2A / KINOMEscan: ACVR2B / KINOMEscan: ADCK3 / KINOMEscan: ADCK4 / KINOMEscan: AKT1 / KINOMEscan: AKT3 / KINOMEscan: ALK / KINOMEscan: ARK5 / KINOMEscan: AURKA / KINOMEscan: AURKC / KINOMEscan: BIKE / KINOMEscan: BMPR1A / KINOMEscan: BMPR1B / KINOMEscan: BMX / KINOMEscan: BRK / KINOMEscan: BRSK1 / KINOMEscan: BRSK2 / KINOMEscan: CAMK1 / KINOMEscan: CAMK1D / KINOMEscan: CAMK1G / KINOMEscan: CAMK2A / KINOMEscan: CAMK2B / KINOMEscan: AAK1 / KINOMEscan: CAMK2D / KINOMEscan: CAMK2G / KINOMEscan: ABL1(F317I)-nonphosphorylated / KINOMEscan: ABL1(F317I)-phosphorylated / KINOMEscan: ABL1(F317L)-nonphosphorylated: unit: % Ctrl
Conditions in all cases: Compound Concentration 10 µM
panel of 442 kinases [1] = target: T1, panel of 442 kinases (Homo sapiens, UniProt O14965)
T1 construct: purchased KINOMEscan
T1 sequence (O14965 1-403): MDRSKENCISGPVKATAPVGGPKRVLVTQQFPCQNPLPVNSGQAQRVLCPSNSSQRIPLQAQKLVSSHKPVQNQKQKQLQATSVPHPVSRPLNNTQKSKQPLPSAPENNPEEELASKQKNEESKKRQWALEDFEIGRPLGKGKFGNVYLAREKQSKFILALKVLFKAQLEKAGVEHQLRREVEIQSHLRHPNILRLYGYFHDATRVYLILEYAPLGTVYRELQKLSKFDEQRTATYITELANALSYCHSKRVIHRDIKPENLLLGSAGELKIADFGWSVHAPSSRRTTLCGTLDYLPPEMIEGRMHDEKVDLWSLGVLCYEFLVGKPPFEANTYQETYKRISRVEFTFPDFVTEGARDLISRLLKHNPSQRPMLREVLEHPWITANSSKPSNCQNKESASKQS
Source text: (§1) We assessed the selectivity of members of this scaffold using the KINOMEscan methodology across a near comprehensive panel of 442 kinases [[18,27]].

panel of 442 kinases [2] = target: T2, panel of 442 kinases (Homo sapiens, UniProt P00519, T315I)
T2 construct: purchased KINOMEscan
Source text: as §1

panel of 442 kinases [3] = target: T3, panel of 442 kinases (Homo sapiens, UniProt P42679)
T3 construct: purchased KINOMEscan
T3 sequence (P42679 1-507): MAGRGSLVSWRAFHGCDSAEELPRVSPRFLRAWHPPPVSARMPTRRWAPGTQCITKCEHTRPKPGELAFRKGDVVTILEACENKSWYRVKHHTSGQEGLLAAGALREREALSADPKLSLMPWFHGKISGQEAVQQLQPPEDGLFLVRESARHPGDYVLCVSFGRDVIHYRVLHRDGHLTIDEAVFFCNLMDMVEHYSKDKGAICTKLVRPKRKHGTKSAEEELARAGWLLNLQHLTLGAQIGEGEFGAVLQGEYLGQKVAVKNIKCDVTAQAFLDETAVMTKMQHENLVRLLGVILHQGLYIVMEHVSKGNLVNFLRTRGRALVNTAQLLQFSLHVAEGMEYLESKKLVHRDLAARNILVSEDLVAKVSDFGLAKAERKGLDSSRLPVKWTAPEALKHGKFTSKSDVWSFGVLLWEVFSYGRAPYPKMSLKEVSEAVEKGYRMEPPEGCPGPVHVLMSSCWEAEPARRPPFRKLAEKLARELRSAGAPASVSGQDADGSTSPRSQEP
Source text: as §1

Row | Compound | KINOMEscan: AURKA (panel of 442 kinases [1]) | KINOMEscan: ABL1(T315I)-phosphorylated (panel of 442 kinases [2]) | KINOMEscan: CTK (panel of 442 kinases [3]) | KINOMEscan: ABL1(T315I)-nonphosphorylated (panel of 442 kinases [2])
1 | COc1cc(C(=O)N2CCC(N3CCN(C)CC3)CC2)ccc1Nc1ncc2c(n1)N1CCc3cccc(c31)C(=O)N2C [Compound 24] | 28 | 100 | – | –
2 | CCOc1cc(C(=O)N2CCC(N3CCN(C)CC3)CC2)ccc1Nc1ncc2c(n1)N(C1CCCC1)c1ccccc1C(=O)N2C [Compound 26] | 100 | 92 | 89 | 95
3 | COc1cc(C(=O)N2CCC(N3CCN(C)CC3)CC2)ccc1Nc1ncc2c(n1)N(C1CCCC1)c1ccccc1C(=O)N2C [Compound 25, 11-cyclopentyl-2-((2-methoxy-4-(4-(4-methylpiperazin-1-yl)piperidine-1-carbonyl)phenyl)amino)-5-methyl-5H-benzo[e]pyrimido[5,4-b][1,4]diazepin-6(11H)-one] | 28 | 100 | 100 | 100
4 | COc1cc(C(=O)N2CCC(N3CCN(C)CC3)CC2)ccc1Nc1ncc2c(n1)N(C)c1ccccc1C(=O)N2C [15 (LRRK2-IN-1)] | 1.2 | 58 | 100 | 100
